Laboratory results as given in patent US20210024483A1, “HETEROCYLCOALKENYL DERIVATIVES USEFUL AS AGONISTS OF THE GPR120 AND / OR GPR40” (Janssen Pharmaceutica NV, priority 2018, published 2021).

Assays:
[1] = biological target: T1, Human GPR120 short form (short splice variant, NM_001195755.1) (Homo sapiens, UniProt Q5NUL3); test: Human GPR120 Calcium Flux Assay; type: cell-based; settings: HEK-293 cells, 4200 cells/well, read-out: Human GPR120 Calcium Flux Assay Procedure B EC50
T1 construct: expressed in transfected cells; host or cells: HEK293
T1 sequence (Q5NUL3 1-361): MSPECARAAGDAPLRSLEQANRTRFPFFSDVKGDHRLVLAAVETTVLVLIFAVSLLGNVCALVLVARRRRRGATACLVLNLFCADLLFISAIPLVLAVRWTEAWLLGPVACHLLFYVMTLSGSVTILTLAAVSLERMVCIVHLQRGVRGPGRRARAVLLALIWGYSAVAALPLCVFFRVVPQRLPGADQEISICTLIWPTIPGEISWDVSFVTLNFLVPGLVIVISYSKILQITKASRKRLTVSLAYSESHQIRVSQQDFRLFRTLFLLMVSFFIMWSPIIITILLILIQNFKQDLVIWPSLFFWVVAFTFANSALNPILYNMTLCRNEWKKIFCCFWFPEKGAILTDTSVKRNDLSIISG
Description: In Vitro Assay: Human GPR120 in Calcium Flux Assay
This in vitro assay serves to assess test compound agonist activity against the short splice variant (SVS with Accession number NM_001195755.1 confirmed by sequencing data) of the GPR120 receptor. The Human Short splice variant #2 (NM_001195755.1) is missing an in-frame coding exon compared to variant 1 (the Human Long splice variant NM_181745.3), resulting in a shorter isoform (GPR120-S) lacking a 16 aa protein segment compared to isoform GPR120-L. The assay platform utilizes HEK-293 cells stably transfected to express the Human GPR120 short form. These cells are first loaded with the Ca^+2 sensitive dye, Fluo-4 NW. Upon stimulation, intracellular released Ca^+2 can bind to the dye and alter its fluorescence intensity. This increase in fluorescence signal, and thus the flux in intracellular [Ca^2+], is detected and quantitated by fluorescence imaging using a FLIPR reader. The effect of the agonist is measured as a function of concentration and used to calculate an EC50 based upon a response curve. […]
In this procedure 4200 cells/well were employed.
A Human GPR120 clone (Genbank accession number NM_001195755.1) was placed into the pcDNA3.1 mammalian expression vector carrying the neomycin resistance gene. A stable mammalian cell was generated by placing the above clone into a HEK293 background. Clonal cells responding to long chain fatty acids had expression levels of GPR120 confirmed by RT-qPCR. Human HEK-GPR120 cells were cultured in Dulbecco's Modified Eagle's Medium (DMEM)/F12 medium supplemented with 10% fetal bovine serum (FBS), 1% L-Glutamine and 1% penicillin/streptomycin and 0.5 mg/ml G-418. Cells were split 2 times a week to keep the cells in the log-phase growth.
In preparation for the assay, HEK cells stably transfected with Human GPR120 (2.5K cells per well in 25 uL growth medium) were seeded into 384-well plates and then incubated overnight (37° C., 5% CO2). The next day, the media was changed to 20 μL assay buffer and the cell starved for 1 h at 37° C. The dye loading solution (2× dye) was prepared using 10 mL assay buffer, 100 μL of 250 mM probenecid, 1 bottle of Component A, and 20 μl of dye in DMSO. Twenty μL of the 2× dye loading buffer was then added to each well. The plates were incubated at 37° C. for 30 min, then at room temperature for an additional 15 minutes, before performing the assay on FLIPR.
The assay was performed on a FLIPR plate reader using the following parameters. Baseline was read for 10 seconds at 1 sec intervals. The program was set to transfer 10 μL of ligand from compound plate to cell plate after baseline reading. Aspiration was executed at: 10 μL/sec speed, 4.6 μL height; Dispensing was executed at: 30 μL/sec speed, 45 μL height. After compound addition, each well was read for 300 sec, with measurements collected at 1 sec intervals.
The kinetic data from the FLIPR was based upon a 5 minute window for data collection. The fluorescence of each sample well was used for individual calculations of a normalized RFU value, which was defined as maximum response minus the minimum response. The normalized fluorescence reading (RFU) was calculated as follows:
(§1) The data were fitted to a sigmoidal dose-response curve with a variable Hill slope (<2) using nonlinear regression with GraphPad Prism 5.0 to calculate the EC50 values. The Fitting Equation was: Y=Bottom+(Top−Bottom)/(1+10^((Log EC50−X)*HillSlope)), where X is the log of the concentration and Y is the response.

[2] = biological target: T2, short form of the GPR120 receptor (Homo sapiens, UniProt Q5NUL3); test: Human GPR120 DiscoveRx PathHunter Beta-Arrestin Assay, Procedure B; type: cell-based; settings: PathHunter CHO-K1 GPR120S cells, 5000 cells/well
T2 construct: host or cells: PathHunter CHO-K1 GPR120S beta-Arrestin Cell Line
T2 sequence (Q5NUL3 1-361): T1 sequence (Q5NUL3 1-361)
Description: Human GPR120 DiscoveRx PathHunter® Beta-Arrestin Assay
The binding of an agonist (medium/long chain fatty acids or small molecule agonists) to the G-protein-coupled receptor GPR120 activates phospholipase C, leading to release of intracellular Ca^+2 through the generation of inositol 1,4,5-trisphosphate (InsP3 or IP3). GPR120 activation can also trigger intracellular signaling via recruitment of Beta-Arrestin. In the present method, agonist-induced activation of the human GPR120 receptor is monitored through the use of PathHunter® CHO-K1 GPR120 Beta-Arrestin Cell Line engineered by DiscoveRx, as detailed below. The cell lines were designed to co-express both the ProLink/Enzyme Donor (PK)-tagged GPCR and the Enzyme […] (EA)-tagged Beta-Arrestin fusion proteins. Upon GPR120 receptor stimulation/activation, the EA-tagged Beta-Arrestin portion is translocated to the tagged receptor, where the two enzyme fragments are brought within close proximity. Under these conditions, these fragments can interact and form an active Beta-gal enzyme complex through Enzyme Fragment Complementation (EFC). This active Beta-gal complex can enzymatically hydrolyse the substrate to produce a detectable light signal; therefore, activation as a function of agonist concentration can be expressed as an EC50 value to determine relative compound activities. This in vitro assay therefore serves to assess compound agonist activity of the GPR120.
In Procedure β-arrestin B the cells used were PathHunter® CHO-K1 GPR120S β-Arrestin Cell Line, expressing the short form of the GPR120 receptor (Accession #[…]), with 5000 cells/well.
The selected CHO-K1 GPR120 β-Arrestin cells were cultured in Ham's F12 media supplemented with 10% fetal bovine serum (FBS), 1% Glutamine, 1× p/s, 800 μg/mL G418 and 300 μg/mL Hygromycin B (for selection). Cell stocks were maintained and grown in a sub-confluent state using standard cell culture procedures. The day before the experiment, the cells were harvested with non-enzymatic cell dissociation buffer and re-suspended in complete growth media at the desired concentration. A Corning 384-plate was then seeded with the proper number of cells in a volume of 25 μL, per well. The seeded plates were incubated overnight at 37° C.
On the day of the experiment, the Assay Buffer containing (a) HBSS with Ca^++ and Mg^++, (b) 20 mM HEPES, and (c) 0.1% BSA stabilizer (pH 7.4) was prepared. The growth medium was gently removed from the cell plates and 20 μL of Assay Buffer added to each well. The plate was then incubated at 37° C. for 60 min. Test compounds were serially diluted in Assay Buffer to desired concentrations (more particularly to one or more of the following μM concentrations: 25, 12.5, 6.25, 3.12, 1.56, 0.78, 0.39, 0.19, 0.10, 0.05, 0.02, 0.01). Five μL of compound dilution was then added to each well and the plate incubated at 37° C. for 90 min. The detection reagents were prepared according to the manufacture's instruction. Twelve μL of the detection reagents were added to each well and the plate incubated at room temperature for 60 min.
The plates were read on an EnVision instrument, using Protocol name: Luminescence, Plate type: 384 Costar, Measurement height: 3 mm, Measurement time: 1 s, Aperture: 384 Plate aperture. The % Activity relative to the positive control was calculated using the following equation:
as §1, with “% Activity values” for “data”, “were plotted versus the concentration of test compound and” for “were”, “a” for “a variable”, “slope=1 (fixed value)” for “slope (<2)”

SMILES | EC50 [1] [nM] | EC50 [2] [nM]
Cc1cc(CCC(=O)O)ccc1OCC1=C(c2ccc(Cl)cc2)CCOC1 [compound 645] | 269 | 275
COc1ccc(C2=C(COc3ccc(CCC(=O)O)c(C)c3C)COCC2)cc1 [compound 647] | > 5000 | 740
Cc1cc(CCC(=O)O)ccc1OCC1=C(c2ccc(F)cc2)CSC1 [compound 625] | 124 | 110
O=C(O)CCc1cc(F)c(OCC2=C(c3ccc(Cl)cc3)CCOC2)c(F)c1 [compound 642] | 176 | 623
O=C(O)CCc1ccc(OCC2=C(c3ccc(Cl)cc3)CCOC2)cc1C(F)(F)F [compound 646] | 628 | 3650
Cc1c(CCC(=O)O)ccc(OCC2=C(c3ccc(Cl)cc3)CCOC2)c1C [compound 641] | 172 | 204

Now from value to molecule:

EC50 [1] [nM] | EC50 [2] [nM] | SMILES
178 | 296 | Cc1cc(CCC(=O)O)ccc1OCC1=C(c2ccc(Cl)cc2)COCC1 [compound 753]
316 | 658 | Cc1c(CCC(=O)O)ccc(OCC2=C(c3ccc(F)cc3)CCOC2)c1C [compound 650]
142 | 169 | Cc1c(CCC(=O)O)ccc(OCC2=C(c3ccc(F)c(F)c3)CCOC2)c1C [compound 658]
